Consider one compound from publication PMC10439952, “JT002, a small molecule inhibitor of the NLRP3 inflammasome for the treatment of autoinflammatory disorders” (Scientific Reports, 2023).

The term IC50 denotes the concentration that gives 50% inhibition. A word on the AUC: it is the area under the concentration-time curve, a measure of exposure. High values mean high exposure, low ones low exposure. As usually defined, the Cmax is the highest concentration seen after dosing. Broadly, the half-life is how long it takes for the measured level to halve. Broadly, the Tmax is the time from dosing to the highest level. The term bioavailability denotes the share of a dose that reaches the circulation, judged against a reference dose that is usually intravenous.

Data set [1] relates to autocatalytic cleavage of pro-caspase-1 (p45) into the p10 subunit. As to the kind of experiment: Western blot for caspase-1 p10 in LPS + nigericin stimulated mouse BMDM lysates and supernatants. The data set is classed as cell-based. Conditions: LPS + nigericin treated mBMDMs, compound 10 µM. On the procedure:
BMDMs were activated with LPS and nigericin as described above and were lysed in situ with 50 μL of 4× NuPAGE LDS sample buffer (Fisher Scientific, Hampton, NH) + 5% β-mercaptoethanol and prepared for polyacrylamide gel electrophoresis. Samples were run on NuPAGE Bis–Tris gels (Fisher Scientific, Hampton, NH) and transferred to polyvinylidene difluoride (PVDF) membranes (Fisher Scientific, Hampton, NH) using the iBlot® 2 Dry Blotting System (Fisher Scientific, Hampton, NH). Washed PVDF membranes were blocked and then probed with the following primary antibodies: procaspase-1 + p10 + p12 [EPR16883] (Abcam, Cambridge, MA), β-actin (AC-74, Sigma-Aldrich, St. Louis, MO) and NLRP3 [Cryo-2] (AdipoGen Life Sciences, San Diego, CA). Bound primary antibodies were detected using HRP-labeled secondary antibodies and membranes were imaged with an Azure c300 imager (Azure Biosystems, Dublin, CA). Bands were quantitated using ImageJ software.
Background: Immunoblotting shows a protein as a band on a membrane.

The target in data set [2] is NLRP3 inflammasome (Homo sapiens, UniProt Q96P20). The data set can be described thus: Inhibition of IL-1β production in human PBMCs stimulated by LPS + nigericin. It is filed as cell-based. Details: host or cells: human PBMCs; fresh heparinised human whole blood from healthy volunteers. The following applies: Human PBMC, read-out: Geo Av IC50, IL-1β. On the procedure:
(§1) Inflammasome activation and whole blood assays were essentially carried out as described earlier. Details can be found in the supplementary information section accompanying this publication. A protocol for blood draws from healthy volunteers and use of the blood in preclinical assays was approved by Western Institutional Review Board, Inc (Puyallup, WA, USA). Informed consent was obtained from each donor prior to the first blood draw.
(§2) Cell viability was determined by addition of an equal volume of CellTiter-Glo® 2.0 reagent (Promega) to the remaining cells/supernatant in each well. Intracellular Caspase-1 activity was measured using the Caspase-Glo® assay (Promega) according to the manufacturer’s instructions. The biochemical capsase-1 assay was conducted at Reaction Biology Corporation (Malvern, USA). Human IL-1β, IL-1α, and TNFα and mouse IL-1β were measured in cell culture supernatants using homogeneous time resolved fluorescence assay kits (HTRF, Cisbio, Codolet, France). Human IL-18 was measured in cell culture supernatants using an ELISA kit (R&D Systems, Minneapolis, MN, USA). Plasma IL-1β concentrations were determined by Quantikine® ELISA (R&D Systems, Minneapolis, MN).
(§3) 4H). MS: m/z 433.1 (M+H+). […]

Data set [3] can be described thus: Pharmacokinetics in male Sprague–Dawley rats after i.v. and p.o. administration. It is filed as in vivo. On the procedure:
The pharmacokinetics (PK) of JT002 were assessed in male Sprague–Dawley rats and male Beagle dogs after intravenous (i.v.) and oral (p.o.) administration (Table 2). […] In dogs, a maximum drug plasma concentration (Cmax) of 4.0 µg/mL (9 µM) was reached 1 h after a single 1 mg oral dose. Dose-adjusted exposures (dose-adjusted AUC) from oral administration were close to identical between rat and dog (11.8 versus 11.6) (Table 2).

The target of data set [4] is NLRP3 inflammasome (Mus musculus, UniProt Q8R4B8). As to the kind of experiment: Inhibition of IL-1β production in mouse BMDMs stimulated by LPS + cholesterol crystals. The following applies: Mouse BMDM, read-out: Geo Av IC50, IL-1β. The data set is classed as cell-based. Details: host or cells: mouse PBMCs; mouse bone-marrow derived macrophages; mouse whole blood (C57BL/6 in the ex vivo study). On the procedure: as §1, §2, §3

Where [5] appears, read: Rat, single 5 mg oral dose, sodium salt form.
The mark [6] stands for this setting: male, Sprague-Dawley, plasma, iv, Rat, 1 mg/kg.
Setting [7] is: male, Sprague-Dawley, plasma, po, Rat, 5 mg/kg.

Sequence of NLRP3 inflammasome (Homo sapiens, UniProt Q96P20) (Q96P20 whole entry): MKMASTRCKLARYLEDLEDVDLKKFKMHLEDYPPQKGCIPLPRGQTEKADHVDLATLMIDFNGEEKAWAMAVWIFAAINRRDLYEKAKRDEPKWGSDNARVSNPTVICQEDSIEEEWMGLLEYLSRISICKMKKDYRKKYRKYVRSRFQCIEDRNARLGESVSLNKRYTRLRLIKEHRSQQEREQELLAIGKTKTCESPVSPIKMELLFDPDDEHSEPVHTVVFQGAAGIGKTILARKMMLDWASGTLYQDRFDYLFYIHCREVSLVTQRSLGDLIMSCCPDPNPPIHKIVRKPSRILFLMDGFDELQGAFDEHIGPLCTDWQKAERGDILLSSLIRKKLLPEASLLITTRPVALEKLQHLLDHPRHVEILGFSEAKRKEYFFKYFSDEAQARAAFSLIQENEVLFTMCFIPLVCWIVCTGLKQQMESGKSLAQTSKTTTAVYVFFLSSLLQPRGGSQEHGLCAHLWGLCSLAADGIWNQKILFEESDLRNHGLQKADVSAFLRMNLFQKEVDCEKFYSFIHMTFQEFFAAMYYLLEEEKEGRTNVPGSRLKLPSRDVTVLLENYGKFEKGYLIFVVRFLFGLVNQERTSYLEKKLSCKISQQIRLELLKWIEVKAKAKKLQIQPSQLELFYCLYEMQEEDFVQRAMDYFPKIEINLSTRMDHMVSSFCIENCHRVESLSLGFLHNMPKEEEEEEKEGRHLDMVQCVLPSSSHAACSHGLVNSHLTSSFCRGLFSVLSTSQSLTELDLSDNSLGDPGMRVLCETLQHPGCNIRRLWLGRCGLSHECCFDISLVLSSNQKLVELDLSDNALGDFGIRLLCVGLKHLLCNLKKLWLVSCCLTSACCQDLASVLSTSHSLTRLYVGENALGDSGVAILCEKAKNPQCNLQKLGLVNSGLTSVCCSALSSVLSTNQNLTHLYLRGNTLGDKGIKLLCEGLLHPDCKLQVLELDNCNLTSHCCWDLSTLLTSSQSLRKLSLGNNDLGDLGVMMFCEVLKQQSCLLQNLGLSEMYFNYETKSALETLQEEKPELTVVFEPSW
Sequence of NLRP3 inflammasome (Mus musculus, UniProt Q8R4B8) (Q8R4B8 whole entry): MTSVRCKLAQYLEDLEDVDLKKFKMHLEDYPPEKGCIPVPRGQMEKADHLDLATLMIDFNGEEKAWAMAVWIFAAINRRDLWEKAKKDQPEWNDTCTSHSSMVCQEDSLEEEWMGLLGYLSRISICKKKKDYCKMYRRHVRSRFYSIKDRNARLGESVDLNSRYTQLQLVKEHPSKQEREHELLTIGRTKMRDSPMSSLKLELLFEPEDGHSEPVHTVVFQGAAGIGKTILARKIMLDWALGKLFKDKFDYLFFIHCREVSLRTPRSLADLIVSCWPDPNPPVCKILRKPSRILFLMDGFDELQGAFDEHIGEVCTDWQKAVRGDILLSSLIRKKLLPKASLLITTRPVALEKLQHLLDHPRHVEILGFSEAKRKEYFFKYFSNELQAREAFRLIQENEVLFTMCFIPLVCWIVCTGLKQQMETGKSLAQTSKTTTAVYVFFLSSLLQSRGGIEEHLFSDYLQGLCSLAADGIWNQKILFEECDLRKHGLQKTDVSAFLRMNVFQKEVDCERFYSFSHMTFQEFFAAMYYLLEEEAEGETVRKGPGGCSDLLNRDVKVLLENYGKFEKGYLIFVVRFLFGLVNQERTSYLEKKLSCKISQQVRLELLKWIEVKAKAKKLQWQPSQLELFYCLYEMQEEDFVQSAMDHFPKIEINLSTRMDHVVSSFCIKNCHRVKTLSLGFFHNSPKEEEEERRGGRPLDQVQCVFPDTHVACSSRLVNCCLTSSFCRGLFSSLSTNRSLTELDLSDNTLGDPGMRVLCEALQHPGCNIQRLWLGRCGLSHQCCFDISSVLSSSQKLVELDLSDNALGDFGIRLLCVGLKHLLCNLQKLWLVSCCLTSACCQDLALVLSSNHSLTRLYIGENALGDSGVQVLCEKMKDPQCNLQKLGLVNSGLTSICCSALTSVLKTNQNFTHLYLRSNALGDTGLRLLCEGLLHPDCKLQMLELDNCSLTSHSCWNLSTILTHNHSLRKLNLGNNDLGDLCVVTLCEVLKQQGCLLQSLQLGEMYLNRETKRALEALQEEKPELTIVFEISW

On to `CO[C@@H]1COc2c(S(=O)(=O)NC(=O)Nc3c4c(cc5c3CCC5)CCC4)cnn2C1` [JT002], for which the “formation of the caspase-1 p10 subunit (autocatalytic cleavage of pro-caspase-1)” value in data set [1] was “blocked formation of the p10 subunit and its release from the cell”. The IC50 in data set [2] came out at 6 nM. In addition, the “%F (oral bioavailability)” value in data set [3] (Rat, p.o., 5 mg/kg, sodium salt form) was found to be 73.2%. For the same compound, in data set [3] (setting [5]), the maximum plasma concentration came to 36 µM and the “time of maximum plasma concentration” value is “thirty”. In data set [3] (setting [6]), the AUC was 16200 ng·h/mL, the Cmax was determined as 10600 ng/mL and the half-life was 2.8 h. Further, in data set [3] (male, Sprague-Dawley, plasma, iv, Rat, i.v., 1 mg/kg, read-out: Clpl (plasma clearance)), the clearance stood at 1 mL/min/kg. Besides, the Vd in data set [3] (male, Sprague-Dawley, plasma, iv, Rat, i.v., 1 mg/kg, read-out: Vss) was determined as 0.2 L/kg. In data set [3] (setting [7]), this compound gave an AUC of 59200 ng·h/mL, a Cmax of 15600 ng/mL and a half-life of 3.4 h. The Tmax in data set [3] (male, Sprague-Dawley, plasma, po, Rat, 5 mg/kg, median) is 0.5 h. The bioavailability in data set [3] (male, Sprague-Dawley, rat, plasma, po, 5 mg/kg, p.o., 5 mg/kg, sodium salt form, read-out: %F (oral bioavailability)) was determined as 73%. In data set [4], the IC50 turned out to be 2 nM.
